According to US4001218A, “Penicillins” (Bayer Aktiengesellschaft, priority 1972, dated 1977):

Experiments:
E. coli 14 [1] = format: cell-based; details: E. coli 14; 24 hours, 37°C
E. coli A 261 = assay: MIC, test tube series dilution test, E. coli A 261; format: cell-based; details: 24 hours, 37°C
E. coli C 165 = assay: MIC, test tube series dilution test, E. coli C 165; format: cell-based; details: 24 hours, 37°C
E. coli 183/58 = assay: MIC, test tube series dilution test, E. coli 183/58; format: cell-based; details: 24 hours, 37°C
Proteus morg. 932 = assay: MIC, test tube series dilution test, Proteus morg. 932; format: cell-based; details: 24 hours, 37°C
Proteus vulg. 1017 = format: cell-based, Proteus vulgaris; details: Proteus 1017; 24 hours, 37°C
Psdm. aerug. F 41 = assay: MIC, test tube series dilution test, Psdm. aerug. F 41; format: cell-based, Pseudomonas aeruginosa; details: Psdm. aerug. F 41; 24 hours, 37°C
Psdm. aerug. Walter = assay: MIC, test tube series dilution test, Psdm. aerug. Walter; format: cell-based, Pseudomonas aeruginosa; details: Psdm. aerug. Walter; 24 hours, 37°C
Klebsiella K 10 [2] = assay: MIC, test tube series dilution test, Klebsiella K 10; format: cell-based; details: 24 hours, 37°C
Klebsiella 63 [3] = assay: MIC, test tube series dilution test, Klebsiella 63; format: cell-based; details: Klebsiella 63; 24 hours, 37°C
Staph. aureus 1756 = assay: MIC, test tube series dilution test, Staph. aureus 1756; format: cell-based, Staphylococcus aureus; details: Staph. aureus 1756; 24 hours, 37°C
Staph. aureus 133 = format: cell-based, Staphylococcus aureus; details: Staph. aureus 133; 24 hours, 37°C
Enterococcus 9790 = assay: MIC, test tube series dilution test, Enterococcus 9790; format: cell-based; details: 24 hours, 37°C
E. coli 14 [4] = assay: turbidity test at 100 μg/ml; format: cell-based; details: 24 hours
E. Coli c165 = assay: turbidity test at 100 μg/ml; format: cell-based; details: 24 hours
Proteus vulgaris 1017 = assay: turbidity test at 100 μg/ml; format: cell-based; details: 24 hours
Klebsiella K 10 [5] = assay: turbidity test at 100 μg/ml; format: cell-based; details: 24 hours
Klebsiella 63 [6] = assay: turbidity test at 100 μg/ml; format: cell-based; details: 24 hours
Salmonella sp. = assay: turbidity test at 100 μg/ml; format: cell-based
Shigella sp. = assay: turbidity test at 100 μg/ml; format: cell-based
Enterobacter sp. = assay: turbidity test at 100 μg/ml; format: cell-based; details: 24 hours
Serratia sp. = assay: turbidity test at 100 μg/ml; format: cell-based; details: 24 hours
[7] = tested on: Proteus, indole-negative, sp.; assay: turbidity test at 100 μg/ml; format: cell-based; details: 24 hours
[8] = tested on: Proteus, indole-positive, sp.; assay: turbidity test at 100 μg/ml; format: cell-based; details: 24 hours
[9] = tested on: Pasteurella pseudotuberculosis; format: cell-based; details: 100 μg/ml, 24 hours
Brucella sp. = format: cell-based; details: 100 μg/ml, 24 hours
Haemophilus influenzae = assay: turbidity test at 100 μg/ml; format: cell-based; details: 24 hours
[10] = tested on: Bordetella bronchiseptica; assay: turbidity test at 100 μg/ml; format: cell-based; details: 24 hours
Bacteroides sp. = assay: turbidity test at 100 μg/ml; format: cell-based; details: 24 hours
[11] = tested on: Staphylococcus aureus 133; assay: turbidity test at 100 μg/ml; format: cell-based; details: 24 hours
[12] = tested on: Neisseria cartarrhalis sp.; assay: turbidity test at 100 μg/ml; format: cell-based; details: 24 hours
[13] = tested on: Diplococcus pneumoniae sp.; assay: turbidity test at 100 μg/ml; format: cell-based; details: 24 hours
Streptococcus pyogenes W = assay: turbidity test at 100 μg/ml; format: cell-based; details: 24 hours
Enterococcus sp. = assay: turbidity test at 100 μg/ml; format: cell-based; details: 24 hours
Lactobacillus sp. = assay: turbidity test at 100 μg/ml; format: cell-based; details: 24 hours
[14] = tested on: Corynebacterium diphteriae gravis; assay: turbidity test at 100 μg/ml; format: cell-based; details: 24 hours
[15] = tested on: Corynebacterium pyogenes M; assay: turbidity test at 100 μg/ml; format: cell-based; details: 24 hours
Clostridium botulinium = format: cell-based
Clostridium tetani = format: cell-based; details: 100 μg/ml, 24 hours
Borrelia sp. = assay: turbidity test at 100 μg/ml; format: cell-based; details: 24 hours
[16] = tested on: Pseudomonas aeruginosa sp.; assay: turbidity test at 100 μg/ml; format: cell-based; details: 24 hours
Aeromonas hydrophila sp. = assay: turbidity test at 100 μg/ml; format: cell-based; details: 24 hours
Klebsiella 62 = assay: animal experiment, Klebsiella 62 infection; details: s.c. 2 × 3000 Units per animal, experiment with Ex.1

CC1(C)S[C@@H]2[C@H](NC(=O)[C@H](NC(=O)c3ccc(NC(=O)C4CC4)cc3)c3ccccc3)C(=O)N2[C@H]1C(=O)O [Example 1, sodium D(-)-α-(4-cyclopropanecarbonylamino-benzoylamino)-benzylpenicillin]
MIC (E. coli 14 [1]): 4 U/ml | MIC (E. coli A 261): > 256 U/ml | MIC (E. coli C 165): 16 U/ml | MIC (E. coli 183/58): 16 U/ml | MIC (Proteus morg. 932): 8 U/ml | MIC (Proteus vulg. 1017): < 32 U/ml | MIC (Psdm. aerug. F 41): 32 U/ml | MIC (Psdm. aerug. Walter): 16 U/ml | MIC (Klebsiella K 10 [2]): 64 U/ml | MIC (Klebsiella 63 [3]): 64 U/ml | MIC (Staph. aureus 1756): 64 U/ml | MIC (Staph. aureus 133): < 1 U/ml | MIC (Enterococcus 9790): ~ 8 U/ml | degree of turbidity (E. coli 14 [4]): non-turbid | degree of turbidity (E. Coli c165): non-turbid | degree of turbidity (Proteus vulgaris 1017): non-turbid | degree of turbidity (Klebsiella K 10 [5]): non-turbid | degree of turbidity (Klebsiella 63 [6]): non-turbid | degree of turbidity (Salmonella sp.): non-turbid | degree of turbidity (Shigella sp.): non-turbid | degree of turbidity (Enterobacter sp.): non-turbid | degree of turbidity (Serratia sp.): non-turbid | degree of turbidity [7]: non-turbid | degree of turbidity [8]: non-turbid | degree of turbidity [9]: non-turbid | degree of turbidity (Brucella sp.): non-turbid | degree of turbidity (Haemophilus influenzae): non-turbid | degree of turbidity [10]: non-turbid | degree of turbidity (Bacteroides sp.): non-turbid | degree of turbidity [11]: non-turbid | degree of turbidity [12]: non-turbid | degree of turbidity [13]: non-turbid | degree of turbidity (Streptococcus pyogenes W): non-turbid | degree of turbidity (Enterococcus sp.): non-turbid | degree of turbidity (Lactobacillus sp.): non-turbid | degree of turbidity [14]: non-turbid | degree of turbidity [15]: non-turbid | degree of turbidity (Clostridium botulinium): non-turbid | degree of turbidity (Clostridium tetani): non-turbid | degree of turbidity (Borrelia sp.): non-turbid | degree of turbidity [16]: non-turbid | degree of turbidity (Aeromonas hydrophila sp.): non-turbid | Surviving animals (Klebsiella 62; 1st day after infection): 100% | Surviving animals (Klebsiella 62; 2nd day after infection): 100% | Surviving animals (Klebsiella 62; 3rd day after infection): 50% | Surviving animals (Klebsiella 62; 5th day after infection): 50%
